Assay results: publication PMC12627862, “Therapeutic targeting of endothelial calcium signaling accelerates the resolution of lung injury” (Signal Transduction and Targeted Therapy, 2025)
Starred links: 1 amine or outer side, 2 acyl side, 3 side chain; linkers in the order of their positions; H or OH if unused. Non-standard residues stand in square brackets, D forms with d. Residues, ends and D or L forms follow the SMILES beside them. ξ: configuration not given here. Oic = O=C(O)[C@@H]1C[C@@H]2CCCC[C@@H]2N1; GABOB(3R) = O=C(C[C@@H](O)CN[*:1])[*:2]; tBuAla = CC(C)(C)C[C@H](N)C(=O)O; ξVal(3-OH) = CC(C)(O)C(N)C(=O)O; 4Amb = NCc1ccc(C(=O)O)cc1

Key:
[1] = Pharmacokinetic studies in rats
Description: Blood samples were collected at predefined time points (2, 10, 30, 60, 90 minutes, and 2, 4, 6, 8, and 24 hours post-dosing) from subgroups of rats, ensuring each animal contributed a limited number of samples to minimize stress. Plasma was separated by centrifugation and stored at -80 °C until analysis. Lungs were collected at selected time points (0.5, 2, 8, and 24 hours) for drug quantification. […] Pharmacokinetic parameters, including Cmax, Tmax, AUC, half-life, clearance, and volume of distribution, were calculated using Phoenix WinNonlin software.

in vitro [2] = settings: mouse, plasma
Description: (§1) Stability assay of peptides in blood plasma of rodents, dogs, and humans. For the plasma stability assay, 5 μM of each peptide was incubated with species-specific plasma for 120 minutes and samples were taken at the required time points. Positive control used were molecules with known stability: enalapril, propantheline, and warfarin. The amount of test compound remaining at each time point was analyzed by LC-MS/MS. Appropriate control compounds for each species were also incubated.

SARS-CoV-2 (WA1/2020) = format: in vivo, mouse
full-length EB3 = full-length EB3 (Homo sapiens, UniProt Q9UPY8); test: STD-NMR binding to EB3 (amplification factor); settings: versus the linear precursor
Sequence of full-length EB3 (Q9UPY8 whole entry, species assumed): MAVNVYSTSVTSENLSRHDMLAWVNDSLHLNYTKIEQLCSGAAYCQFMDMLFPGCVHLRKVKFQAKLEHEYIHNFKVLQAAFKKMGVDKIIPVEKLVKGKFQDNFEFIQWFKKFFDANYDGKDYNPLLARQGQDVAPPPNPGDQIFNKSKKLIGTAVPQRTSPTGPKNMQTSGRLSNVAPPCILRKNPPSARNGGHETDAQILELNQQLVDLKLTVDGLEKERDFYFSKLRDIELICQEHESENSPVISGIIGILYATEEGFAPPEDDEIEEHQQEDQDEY
Description: To screen these drug-like compounds for binding to full-length EB3, we employed the saturation transfer difference (STD)-NMR approach as a cell-free throughput screening platform. We were unable to use other methods, such as isothermal titration calorimetry, because of the nature of the EB3 dimer, which dynamically exchanges chains within the dimer—a process influenced by the binding of the C-terminus to its partners, such as the tested peptides. To analyze the STD-NMR data quantitatively, we established the amplification factor (AMPSTD), a change in signal intensity upon saturation that is normalized to ligand abundance (Fig. 1a), as a measure of the binding affinity of the compounds to the target protein EB3. […]
Fig. 1 NMR-based characterization of EB3 inhibitors. a The saturation transfer difference (STD) NMR approach was used to profile peptide binding to EB3. […] The amplification ratio was calculated as follows: AMPSTD = ISTD/INO SAT x {L}, where ISTD is the highest STD signal intensity measured with saturation; INO SAT is the intensity measured for the same signal without saturation; and {L} is the peptide concentration. c ^1H-^15N HSQC spectrum of ^15N-enriched EB3_200-281 alone (black) and in the presence of a 1:1 molar ratio of 109 (cyan). […]

[3] = tested on: CD-1 mice subjected to mechanical ventilation; test: High tidal volume mechanical ventilation (VILI); format: in vivo, mouse; settings: HVMV 40 mL/kg bw for 2 hours; i.v. 2 µmol/kg bw
Description: Severely ill ARDS patients undergo intubation and are placed on a mechanical ventilator to maintain adequate oxygen levels in the body[42]. This supportive intervention can have detrimental effects on the lungs, leading to diffuse ventilator-induced lung injury (VILI) in the regions exposed to the highest pressure. Furthermore, VILI primarily targets alveolar epithelial cells, in contrast to indirect models of ARDS, such as endotoxemia and sepsis, where systemic inflammation predominantly injures the pulmonary endothelial barrier. Thus, as a part of a safety study, we investigated the effects of VT-109 on the pathogenesis of VILI. Mice that received vehicle or VT-109 at the most efficacious dose of 2 µmol/kg bw were subjected to high-volume mechanical ventilation (HVMV) at 40 mL/kg bw for 2 hours, and albumin extravasation was measured to determine VILI-induced vascular leakage (Fig. 4g, h).
Mice intubated with a 20-gauge catheter were ventilated using a Harvard Apparatus ventilator (Harvard Bioscience) with high tidal volumes of 40 mL/kg body weight, a respiratory rate of 80 breaths per minute, and no positive end-expiratory pressure (PEEP) for 2 hours to induce ventilator-induced lung injury (VILI). Intravenous treatment with 250 nmol/kg bw VT-109 was administered at the onset of HVMV. Mice breathing spontaneously were used as experimental control.

[4] = tested on: CD1 mice, cecal ligation and puncture; test: Polymicrobial sepsis model (CLP); format: in vivo, mouse
in vitro [5] = settings: human, plasma
Description: as §1

in vitro [6] = settings: rat, plasma
Description: as §1

[7] = male, Crl:CD (SD), rat, in vivo, iv, 5 mg/kg
[8] = rat lungs, single IV 5 mg/kg, Phoenix WinNonlin
[9] = rat plasma, single IV 5 mg/kg, Phoenix WinNonlin
[10] = 24 hours after CLP, 18-gauge, n = 3
[11] = 24 hours after CLP, 2 µmol/kg bw i.v. 5 hours post-surgery, n = 5
[12] = BAL 24 hours after CLP, treatment at 5 hours post-surgery, Mean±Std, n = 8–10
[13] = CLP, VT-109 monotherapy 2 µmol/kg bw i.v.
[14] = PF (peritoneal fluid), head says BAL, CLP, Mean±Std

CC(C)(C)C[C@@H]1NC(=O)C[C@@H](O)CNC(=O)[C@@H]2C[C@@H]3CCCC[C@@H]3N2C(=O)[C@H](CC(C)(C)C)NC(=O)c2ccc(cc2)CNC(=O)C(C(C)(C)O)NC(=O)[C@@H](Cc2ccccc2)NC1=O (stereo partly drawn) [compound 109, (1^2S,1^3aS,1^7aS,3S,10S,13R,16S,20R)-13-benzyl-20-hydroxy-10-(2-hydroxypropan-2-yl)-3,16-dineopentyl-1^2,1^3,1^3a,1^4,1^5,1^6,1^7,1^7a-octahydro-1^1H-4,8,11,14,17,22-hexaaza-1(1,2)-indola-6(1,4)-benzenacyclotricosaphane-2,5,9,12,15,18,23-heptaone.] (cyclo([4Amb][tBuAla][Oic][GABOB(3R)][tBuAla][dF][ξVal(3-OH)]))
AUC(0-t) [1, 7]: 12400 ng·h/mL
C0 [1, 7]: 46300 ng/mL
Tmax [1, 7]: 1.98 min
Vd [1, 7]: 3.1 L/kg
clearance [1, 7]: 6.72 mL/min/kg
half-life [1, 7]: 5.33 h
AUC (0-last) [1, 8]: 27219 ng·h/g
Cmax [1, 8]: 3606 ng/g
Lambda_z [1, 8]: 0.1535 h⁻¹
half-life [1, 8]: 4.52 h
persistence of substantial amounts in the lung post dose ([1]; rat lungs, single intravenous injection): at least 24 hours
Cmax [1, 9]: 40548 ng/mL
Lambda_z [1, 9]: 0.1299 h⁻¹
time of peak plasma concentrations (Cmax) after dosing ([1]; rat plasma, single intravenous injection): ≤ 2 min
half-life at 5 μM (in vitro [2]): > 8 h
remaining at 2 h, 5 μM (in vitro [2]): 89.8%
lung injury (ALI score) (SARS-CoV-2 (WA1/2020); 250 nmol/kg bw from 1 dpi): promoted the resolution of lung injury by day 7
NFATC2 nuclear accumulation in endothelial and immune cells (SARS-CoV-2 (WA1/2020); 250 nmol/kg bw, 7 dpi): reduced NFATC2 nuclear accumulation
VE-cadherin junctions (SARS-CoV-2 (WA1/2020); 250 nmol/kg bw, 7 dpi): reannealed junctions
number of infiltrating monocytes and neutrophils in the BALF (SARS-CoV-2 (WA1/2020); 2 µmol/kg bw i.v.): significantly reduced
blood-brain barrier (BBB) integrity, cerebral cortex (SARS-CoV-2 (WA1/2020); 2 µmol/kg bw i.v., 5 dpi): restored BBB integrity
improvement of EB3 binding by head-to-tail cyclization (full-length EB3): approximately 4 fold
VILI-induced vascular albumin leakage [3]: markedly reduced leakage
recruitment of neutrophils (MPO levels in the lung tissues) [3]: prevented
bacterial counts in the blood or peritoneal fluid ([4]; 24 hours after CLP): did not affect
phosphorylation of FOXM1 at Ser715 [4, 10]: increased phosphorylation
sepsis-induced changes of FOXM1, FOXO1, E2F3, β-catenin and p21 in lung tissue (Western blot) [4, 10]: reversed these changes
VE-cadherin and occludin expression ([4]; 24 hours after CLP, 18-gauge, to the baseline levels of sham mice): restored
alanine aminotransferase (ALT), blood [4, 11]: reduced levels
blood urea nitrogen (BUN) [4, 11]: reduced levels
bacterial colony counts in bronchoalveolar lavage fluid (BALF) ([4]; 24 hours after CLP, VT-109 monotherapy versus vehicle): markedly reduced
BAL Cytokine mGM-CSF [4, 12]: 1.21 ± 0.70 pg/mL
BAL Cytokine mIFNγ [4, 12]: 0.49 ± 0.34 pg/mL
BAL Cytokine mIL-1a [4, 12]: 0.14 ± 0.00 pg/mL
BAL Cytokine mIL-1b [4, 12]: 1.59 ± 1.01 pg/mL
BAL Cytokine mIL-4 [4, 12]: 2.79 ± 1.03 pg/mL
BAL Cytokine mIL-6 [4, 12]: 282.12 ± 522.24 pg/mL
BAL Cytokine mIL-10 [4, 12]: 2.19 ± 2.95 pg/mL
BAL Cytokine mIL-12 [4, 12]: 16.99 ± 7.90 pg/mL
BAL Cytokine mIL-17 [4, 12]: 0.14 ± 0.00 pg/mL
BAL Cytokine mKC [4, 12]: 609.75 ± 878.78 pg/mL
BAL Cytokine mMCP-1 [4, 12]: 19.17 ± 28.01 pg/mL
BAL Cytokine mMIP-1α [4, 12]: 1.16 ± 1.31 pg/mL
BAL Cytokine mRANTES [4, 12]: 2.55 ± 5.23 pg/mL
survival rate ([4]; CLP 18-gauge, VT-109 monotherapy 2 µmol/kg bw i.v., initiated 5 hours post-surgery): significantly improved the survival rate
survival ([4]; CLP 18-gauge, monotherapy: VT-109 0.5 µmol/kg bw or enrofloxacin 5 mg/kg bw): neither antibiotics nor VT-109 monotherapy (0.5 µmol/kg bw) significantly improved survival
acute lung injury (H&E, ALI score) [4, 13]: prevented the development of acute lung injury
neutrophil recruitment into lung tissue (Ly6G) [4, 13]: markedly suppressed
Cytokine mGM-CSF [4, 14]: 15.75 ± 20.22 pg/mL
Cytokine mIFNγ [4, 14]: 4.39 ± 3.00 pg/mL
Cytokine mIL-1a [4, 14]: 104.93 ± 94.65 pg/mL
Cytokine mIL-1b [4, 14]: 229.14 ± 237.82 pg/mL
Cytokine mIL-3 [4, 14]: 0.28 ± 0.00 pg/mL
Cytokine mIL-4 [4, 14]: 6.90 ± 0.83 pg/mL
Cytokine mIL-5 [4, 14]: 5.06 ± 2.77 pg/mL
Cytokine mIL-6 [4, 14]: 46833 ± 65942 pg/mL
Cytokine mIL-10 [4, 14]: 432.67 ± 490.14 pg/mL
Cytokine mIL-12 [4, 14]: 57.48 ± 43.37 pg/mL
Cytokine mIL-17 [4, 14]: 7.20 ± 5.26 pg/mL
Cytokine mKC [4, 14]: 24611 ± 34486 pg/mL
Cytokine mMCP-1 [4, 14]: 16338 ± 17531 pg/mL
Cytokine mMIP-1α [4, 14]: 5136 ± 8056 pg/mL
Cytokine mRANTES [4, 14]: 382.32 ± 397.78 pg/mL
Cytokine mTNFα [4, 14]: 29.39 ± 31.64 pg/mL
half-life at 5 μM (in vitro [5]): > 8 h
remaining at 2 h, 5 μM (in vitro [5]): 101%
half-life at 5 μM (in vitro [6]): 4.88 h
remaining at 2 h, 5 μM (in vitro [6]): 76.5%
